Each structure is given as a SMILES string.

The data set in a line: Brain tissue binding by equilibrium dialysis, rat brain homogenate. It counts as in vitro ADME. Conditions: male, Sprague Dawley, pH 7.4, read-out: Rat brain tissue binding (Fu %). As for the experimental part:
Methods: Plasma protein binding and blood tissue binding of test items (0.5 μM) was determined using biological samples from male Sprague Dawley (SD) rats and humans. […] Dexamethasone was used as a control compound for lung tissue binding. Various biological samples were spiked with test compounds according to the methods that follow.
Preparation of brain homogenate samples: Test items were dissolved in DMSO (or an appropriate solvent) to give a 10 mM solution. Further dilutions, to obtain […] working solutions (WS), were then prepared using 50% acetonitrile in Milli Q water. These 100×WS were used to spike the brain homogenate to obtain a final concentration of 5 μM. From this initial spiking solution, control samples (n=3) referred to as T=0, were immediately extracted by protein precipitation.
An equilibrium dialysis method was performed to determine protein binding in the various biological samples described herein. Materials were prepared and methods were in accordance with the following procedures.
Membranes were prepared for use in the equilibrium dialysis experiment. by soaking in deionized water for at least 60 minutes. After this period, 20% of pure ethanol was added, and the membranes were left in this solution for at least 20 minutes. The membranes were then rinsed in Milli-Q water prior to use.
To initiate the experiment, 150 μL of test item-free buffer (isotonic phosphate buffer for plasma and blood, artificial CSF buffer for brain or HBSS buffer for lung) was dispensed on one half-well of a 96-well dialyzer apparatus (HTDialysis LLC), and 150 μL of spiked matrix (plasma, blood, brain or lung) was loaded on the other half-well. Alternative volumes may be used according to the operating instructions of HTDialysis.
The artificial cerebrospinal fluid (CSF) buffer was prepared as follows, NaCl 3.652 g, KCl 93.2 mg, MgCl2 119.96 mg, CaCl2 92.61 mg, Na2HPO4*H2O 268.0 mg. These were dissolved in […] of MilliQ water, and the pH was adjusted to a pH of 7.4 with H3PO4.
Dialysis buffer was prepared by dissolving Na2HPO4 8.69 g, KH2PO4 1.90 g, and NaCl 4.11 g in […] of MilliQ water, and adjusting the pH to 7.4 with H3PO4. […]
Samples were then injected onto an HPLC MS/MS or UPLC MS/MS system. In order to control the integrity of the membrane after the dialysis process, the presence of protein was assessed in the buffer compartment. […]
Samples were analyzed in a LC-MS/MS system using an analytical method to monitor the compound to internal standard peak area ratios as representative of the compound concentrations. Alternatively, samples were analyzed by RapidFire. […]
A general note: In equilibrium dialysis free small molecules cross a membrane that holds back macromolecules.
For the compound `COC(=O)c1ccc2c(c1)CC(N)C2` (stereo not shown) [CMP-405, 2-aminoindane-5-methylcarboxylate], the fraction unbound at 5 h, 5 μM came to 0.24.

For `COC(=O)c1cc2c(cc1OC)CC(N)C2` (stereo not shown) [CMP-401], the fraction unbound at 5 h, 5 μM was greater than 0.5.

Consider `COc1ccc2c(c1)CC(N)C2` (stereo not shown) [MEAI, 5-methoxy-2-aminoindane], for which the fraction unbound at 5 h, 5 μM stood at 0.33.

`COc1cc2c(cc1C)CC(N)C2` (stereo not shown) [MMAI, 5-methoxy-6-methyl-2-aminoindane]: the fraction unbound at 5 h, 5 μM is 0.12.

The record behind these values is patent publication US20260159474A1, “Aminoindane Compounds and Compositions and Methods of Their Therapeutic Use” (Solvonis Therapeutics Ireland Holdings Limited, priority 2021, published 2026).
